Results on 35 compounds are retold here after patent publication US4788186A, “6-substituted-s-triazolo[3,4-a]phthalazine derivatives” (Gruppo Lepetit S.p.A., priority 1982, dated 1988).

Data set [1] addresses rat brain benzodiazepine receptors (3H-diazepam receptor). Description: benzodiazepine receptor binding test in vitro (inhibition of specific 3H-diazepam binding to rat brain membranes). To be noted: Ki = IC50/(1+C/KD), read-out: Ki (inhibitor constant, 3H-diazepam binding). The text has this:
The pharmacological properties of the compounds of the present invention were first investigated by submitting them to the benzodiazepine receptor binding test in vitro.

Data set [2] deals with male rats of the CFHB Wistar strain. Description: conditioned avoidance test (secondary conditioned response, pole climbing). In kind it is in vivo, rat (CFHB Wistar). Particulars: intraperitoneally, doses of between about 1/30 and 1/10 of the corresponding LD50s. As to the method: (§1) Some of the compounds of the above list were also tested in vivo in those pharmacological tests thought to be predictive of anxiolytic activity in man. Classical pharmacological tests employed to confirm the antianxiety activity were the conditioned avoidance test and the antipentylenetetrazole test in mice. The conditioned avoidance test was carried out according to the method described by Cook and Weidley in Ann. N.Y. Acad. Sci. 1957, 66, 740, and subsequently modified by Maffii (J. Pharm. and Pharmacol., 1959, 11, 129-139). In this procedure a rat is placed in a chamber with a grid floor through which electric shocks may be delivered. This chamber is also equipped with a buzzer and with a wooden pole, electrically isolated, which is suspended from the top of the experimental chamber.
The animal soon learns to escape the shock by climbing the pole (unconditioned response--U.R.) and by climbing the pole in response to the buzzer alone (conditioned avoidance response--CR). After further exposure to the situation, the rat becomes conditioned and climbs the pole before the buzzer is activated; when this response becomes stable, the rat is considered to have developed a secondary conditioned response (CR2).
(§2) The drug to be studied is then administered to these long-trained animals and its deconditioning effect is evaluated. […] Moreover, the activity of some of the compounds of the present invention has been tested in the antipentylenetetrazole test in mice. The experiments have been carried out by following essentially the methodology described by Berger in J. Pharm. Exptl. Ther. 104, 468, (1952). More particularly, a fatal dose of pentylentetrazole (140 mg/kg s.c.) was administered to groups of ten mice each, 30 minutes after a selected dose of the potential anticonvulsant compound. […] Since the animals of the control group died within 30 minutes, the effectiveness of the compounds tested at each dose tested was expressed as the number of animals of the group which were still alive two hours after the administration of pentylenetetrazole, out of the total number of animals of the group (10).

Data set [3] deals with mice (pentylenetetrazole-induced death). Put plainly: antipentylenetetrazole test in mice. Format: in vivo. Particulars: pentylenetetrazole 140 mg/kg s.c. 30 min later, alive after 2 hours. As to the method: as §1, §2
The nature of data set [4]: LD50 (acute toxicity, i.p.). Particulars: in vivo, ip.

The term Ki denotes a measure of affinity in units of concentration, obtained from inhibition or displacement. Turning to `c1ccc(-c2nnc3c4ccccc4c(N4CCCC4)nn23)cc1` [Example 27, 3-phenyl-6-(1-pyrrolidinyl)-1,2,4-triazolo[3,4-a]phthalazine], the Ki in data set [1] is 16 nM. As to `CC(O)CN(C)c1nn2c(-c3ccccc3)nnc2c2ccccc12` (stereo not drawn) [Example 29], the Ki in data set [1] was found to be 28 nM.

In the case of `c1ccc(-c2nnc3c4ccccc4c(N4CCOCC4)nn23)cc1` [Example 30], the Ki in data set [1] turned out to be 18 nM. Moreover, in data set [2], the “effect on primary conditioned and unconditioned responses (CR and U.R.)” value (“effect … (CR and U.R.)” below) was “without influencing the primary conditioned and the unconditioned responses (CR and U.R.)”; the “effect on secondary conditioned response (CR2)” value (“effect … (CR2)” below) was “effective in inhibiting the secondary conditioned response (CR2)”.

One may read the LD50 as the dose expected to kill half of the subjects tested. For `COc1ccc(-c2nnc3c4ccccc4c(N(C)CC(C)O)nn23)cc1` (stereo not drawn) [Example 31], in data set [1], the Ki came to 17 nM. Further, in data set [3] (dose 10 mg/kg i.p.), the Protected/treated was 6/10. Further, the Protected/treated in data set [3] (dose 20 mg/kg i.p.) is on record as 9/10. This compound registered an LD50 in data set [4] not below 300 mg/kg. Besides, in data set [2], the “effect … (CR and U.R.)” value is “without influencing the primary conditioned and the unconditioned responses (CR and U.R.)”; the “effect … (CR2)” value is “effective in inhibiting the secondary conditioned response (CR2)”. As to `COc1ccc(-c2nnc3c4ccccc4c(N(C)CCCO)nn23)cc1` [Example 32, N-(3-hydroxypropyl)-N-methyl-3-(4-methoxyphenyl)-1,2,4-triazolo[3,4-a]phthalazin-6-amine], the Ki in data set [1] came out at 0.968 nM. For `CNc1nn2c(-c3ccccc3)nnc2c2ccccc12` [Example 35], the Ki in data set [1] stood at 46 nM.

Take `CCNc1nn2c(-c3ccccc3)nnc2c2ccccc12` [Example 36]: the inhibition constant Ki in data set [1] was 48 nM.

For `CN(C)c1nn2c(-c3ccccc3)nnc2c2ccccc12` [Example 41], the Ki in data set [1] stood at 21 nM. As to `CCN(CC)c1nn2c(-c3ccccc3)nnc2c2ccccc12` [Example 42], the inhibition constant Ki in data set [1] amounted to 57 nM. On to `c1ccc(-c2nnc3c4ccccc4c(N4CCCCC4)nn23)cc1` [Example 43], for which, in data set [1], the Ki turned out to be 16 nM.

On to `CN1CCN(c2nn3c(-c4ccccc4)nnc3c3ccccc23)CC1` [Example 44], for which, in data set [1], the Ki stood at 57 nM. On to `CC1(C)CN(c2nn3c(-c4ccccc4)nnc3c3ccccc23)C1` [Example 45], for which, in data set [1], the inhibition constant (Ki) amounted to 32 nM. For the same compound, in data set [2], the “effect … (CR and U.R.)” value was “without influencing the primary conditioned and the unconditioned responses (CR and U.R.)”; the “effect … (CR2)” value is listed as “effective in inhibiting the secondary conditioned response (CR2)”.

Turning to `CCN(C)c1nn2c(-c3ccccc3)nnc2c2ccccc12` [Example 46], in data set [1], the Ki came out at 14 nM. Still for that read-out and setting: the value for `COc1ccc(-c2nnc3c4ccccc4c(N4CCCC4)nn23)cc1` [Example 47] was 3.9 nM; that for `CC(=O)Nc1ccc(-c2nnc3c4ccccc4c(N4CCCC4)nn23)cc1` [Example 51] was 40 nM.

Take `COc1ccc(-c2nnc3c4ccccc4c(N4CCCC4)nn23)cc1OC` [Example 54]: in data set [2], the “effect … (CR and U.R.)” value was “without influencing the primary conditioned and the unconditioned responses (CR and U.R.)”; the “effect … (CR2)” value was “effective in inhibiting the secondary conditioned response (CR2)”. For the compound `Fc1ccc(-c2nnc3c4ccccc4c(N4CCCC4)nn23)cc1` [Example 64], in data set [1], the Ki came to 20 nM. As to `COCCN(CCOC)c1nn2c(-c3ccc(OC)cc3)nnc2c2ccccc12` [Example 67], the Ki in data set [1] is 2.7 nM. The Protected/treated is 4/10 in data set [3] (dose 5 mg/kg i.p.) and 8/10 in data set [3] (dose 10 mg/kg i.p.). In addition, in data set [4], the LD50 was not below 300 mg/kg. Also, in data set [2], the “effect … (CR and U.R.)” value is “without influencing the primary conditioned and the unconditioned responses (CR and U.R.)”. In addition, the “effect … (CR2)” value in data set [2] is on record as “effective in inhibiting the secondary conditioned response (CR2)”.

As for `CCOC(=O)C1CCN(c2nn3c(-c4ccc(OC)cc4)nnc3c3ccccc23)CC1` [Example 72], in data set [1], the Ki stood at 1.5 nM. Also, in data set [2], the “effect … (CR and U.R.)” value was “without influencing the primary conditioned and the unconditioned responses (CR and U.R.)”; the “effect … (CR2)” value is given as “effective in inhibiting the secondary conditioned response (CR2)”. As for `CC1CC(C)CN(c2nn3c(-c4ccccc4)nnc3c3ccccc23)C1` (stereo not drawn) [Example 73], in data set [1], the Ki turned out to be 210 nM. In data set [2], the “effect … (CR and U.R.)” value was “without influencing the primary conditioned and the unconditioned responses (CR and U.R.)”; the “effect … (CR2)” value is recorded as “effective in inhibiting the secondary conditioned response (CR2)”. Take `Oc1ccc(-c2nnc3c4ccccc4c(N4CCCC4)nn23)cc1` [Example 74]: the Ki in data set [1] worked out at 17 nM. Take `Nc1ccc(-c2nnc3c4ccccc4c(N4CCCC4)nn23)cc1` [Example 75]: the Ki in data set [1] turned out to be 29 nM. As for `COc1ccc(-c2nnc3c4ccccc4c(N4CCC(O)C4)nn23)cc1` (stereo not drawn) [Example 79], the Ki in data set [1] was determined as 2.7 nM. Consider `CCOc1nn2c(-c3ccccc3)nnc2c2ccccc12` [Example 85, 6-ethoxy-3-phenyl-1,2,4-triazolo[3,4-a]phthalazine], for which the Ki in data set [1] is 7.8 nM. For `CCCCCOc1ccc(-c2nnc3c4ccccc4c(OCC)nn23)cc1OC` [Example 93], in data set [2], the “effect … (CR and U.R.)” value is “without influencing the primary conditioned and the unconditioned responses (CR and U.R.)”; the “effect … (CR2)” value is “effective in inhibiting the secondary conditioned response (CR2)”.

Regarding `CCOc1nn2c(-c3ccc(OC)cc3)nnc2c2ccccc12` [Example 101], the inhibition constant (Ki) in data set [1] was 2.9 nM. The same measure, in the same setting: the value for `COc1ccc(-c2nnc3c4ccccc4c(OCCCCO)nn23)cc1` [Example 103, 6-(4-hydroxybutoxy)-3-(4-methoxyphenyl)-1,2,4-triazolo[3,4-a]phthalazine] was 0.427 nM; that for `CCOC(=O)CCCOc1nn2c(-c3ccc(OC)cc3)nnc2c2ccccc12` [Example 104, 4[[3-(4-methoxyphenyl)-1,2,4-triazolo[3,4-a]phthalazin-6-yl]oxy]butanoic acid ethyl ester] was 0.806 nM. Consider `COCCOc1nn2c(-c3ccc(OC)cc3)nnc2c2ccccc12` [Example 105, 6-(2-methoxyethoxy)-3-(4-methoxyphenyl)-1,2,4-triazolo[3,4-a]phthalazine], for which the Ki in data set [1] amounted to 0.9 nM. The Protected/treated in data set [3] (dose 15 mg/kg i.p.) is given as 3/10. Further, the Protected/treated in data set [3] (dose 25 mg/kg i.p.) was 8/10. In addition, in data set [4], the LD50 is approximately 500 mg/kg. In data set [2], the “effect … (CR and U.R.)” value is “without influencing the primary conditioned and the unconditioned responses (CR and U.R.)”; the “effect … (CR2)” value is recorded as “effective in inhibiting the secondary conditioned response (CR2)”. As for `COc1ccc(-c2nnc3c4ccccc4c(N(C)CCCC#N)nn23)cc1` [Example 107, 4-[[3-(4-methoxyphenyl)-1,2,4-triazolo [3,4-a]phthalazin-6-yl]methylamino]butanonitrile], the inhibitory constant (Ki) in data set [1] is 0.565 nM.

As to `CCOC(=O)CCCN(C)c1nn2c(-c3ccc(OC)cc3)nnc2c2ccccc12` [Example 108], in data set [1], the Ki was 0.524 nM.

Regarding `CCS(=O)(=O)c1nn2c(-c3ccccc3)nnc2c2ccccc12` [Example 112, 6-(ethyl-sulfonyl)-3-phenyl-1,2,4-triazolo[3,4-a]phthalazine], in data set [1], the Ki turned out to be 60 nM. In data set [2], the “effect … (CR and U.R.)” value is “without influencing the primary conditioned and the unconditioned responses (CR and U.R.)”; the “effect … (CR2)” value is on record as “effective in inhibiting the secondary conditioned response (CR2)”. As to `c1ccc(-c2nn3cnnc3c3ccccc23)cc1` [Example 114, 6-phenyl-1,2,4-triazolo[3,4-a]phthalazine], in data set [2], the “effect … (CR and U.R.)” value is “without influencing the primary conditioned and the unconditioned responses (CR and U.R.)”; the “effect … (CR2)” value is on record as “effective in inhibiting the secondary conditioned response (CR2)”.

Take `CCN(CC)CCN1C(=O)CN=C(c2ccccc2F)c2cc(Cl)ccc21` [Flurazepam, reference compound]: the inhibition constant (Ki) in data set [1] came to 8.58 nM. Still for that read-out and setting: the value for `O=C1Nc2ccc(Cl)cc2C(c2ccccc2)=NC1O` (stereo not drawn) [Oxazepam, reference compound] was 5.2 nM.
